Assay results: patent US20050032246A1, “Method of immobilizing membrane-associated molecules” (priority 2002, published 2005)

Legend:
IMR-32 nAChR [1] = type: binding, human; details: IMR-32 nAChR entrapped in DGS; constant 3H-epibetadine; FIG. 10
Method: Sodium silicate or DGS derived sol precursors were prepared by methods described previously.^64 The sol solution was mixed 1:1 (v/v) with the buffered liposome or reconstituted nAChR solution, in the bottoms of 96 well microtiter plates to a final volume of 100 μL. For entrapment of IMR-32 cells for ion flux assays, the nAChR containing stock described above was uses for entrapment without further dilution. For radioassays using IMR-32 nAChR, the stock sample as provided directly from Perkin Elmer was diluted four fold in 25 mM HEPES, 100 mM KCl, 5 mM EGTA, pH 7.4 and mixed 1:1 (v/v) in DGS derived sol. The samples were aged for 1 hr at 4° C. For Torpedo Californica nAChR, the stock sample was diluted four fold in 150 mM HEPES, 100 mM KCl, 5 mM EDTA, pH 7.4, and mixed 1:1 (v/v) with sodium silicate derived sol.
Samples of either entrapped Torpedo californica nAChR, IMR-32 nAChR or Asolectin liposomes were formed in the bottoms of 96-well microtiter plates. […] The radioactive decay from ^3H-epibatidine was then counted for 5 min to determine the ratio of free ligand existing in solution. […] Using the information from these samples the amount of receptor bound ligand could be determined. […] Free ligand was determined as described above.

IMR-32 nAChR [2] = type: biochemical, human
Method: Lipid films consisting of EggPC, EggPE, Sphingomylin and cholesterol in mol ratios of 55:27:9:9 percent, respectively, were prepared as described earlier, and rehydrated to a final lipid concentration of 3.0 mg/mL and Fluo-3 concentration of 65 μM. The liposome stock was then mixed with a small amount of DMM bringing the solution to a final concentration of 0.2 mM. Immediately following this, IMR-32 nAChR stock was added to the detergent lipid mixture and allowed to incubate at 4° C. for 90 min. Following this 15 mg of SM2-Biobeads were added to the mixture and incubated for 1 hr. This was repeated 3 times with the final addition allowed to incubate for a period of 12 hrs. […]
In these assays, IMR-32 nAChR containing liposomes with an intraliposomal solution of Fluo-3 were entrapped as described above in 1:1 (v/v) in DGS derived silica. […] Antagonism of the nAChR ion channel was measured by addition of 25 μL of the nAChR antagonist d-tubocurarine to the top of the nAChR-containing monolith in the 96-well plate. Ligand-gated ion-flux was monitored through time dependent changes in fluorescence intensity upon the addition of 50 μL of 3 M CaCl2 using a TECAN-Safire microwell platereading fluorescence system. Fluo-3 emission was monitored and 526 nm with an excitation wavelength of 488 nm, emission and excitation bandpasses of 5 and 7.5 nm, and a detector gain of 130 V, over a period of 45 min. […]

[3] = Fluo-3 Ca(II) influx into DOPC liposomes in buffered solution after addition of ionophore; type: biochemical; details: Ca(II) outside, fluo-3 inside, FIG. 14
Method: DOPC stock solutions were purchased in chloroform at a concentration of 20 mg.mL^−1. DOPC stock solution was dispensed in disposable glass vials and the organic solvent was removed by evaporation under a dry nitrogen gas stream to remove the bulk of the organic solvent, followed by evaporation under vacuum for two hours. The resulting dried lipid films were then rehydrated in a buffer consisting of 25 mM EGTA, 25 mM EDTA, 10% Sucrose (w/w), 10 mM KCl, 0.529 mM Fluo-3, pH 7.6 to a final lipid concentration of 2 mg/mL. The hydrated liposomes were then extruded through 600 nm pores, with an Avanti—MINIEXTRUDER at room temperature to create a mono-disperse suspension of unilamellar liposomes 600 nm in diameter. The external Fluo-3 was removed by filtration through a column packed with Sephadex G25 to yield liposomes with dye only on the interior of the liposome.
In this case, Ca(II) is initially present only outside the liposome, while fluo-3 is present only inside the liposome. The addition of ionomycin results in the incorporation of the ionophore into the membrane, and produces a channel through which Ca(II) can move into the interior of the liposome. […]

gramicidin A = test: Safranine O ion-channel activity assay of reconstituted gramicidin A entrapped in DGS derived silicate; type: biochemical; details: various levels of CaCl2 with 3.0 M KI; several hundred millimolar Ca2+ required; FIG. 6
Method: The Gramicidin A stock was prepared in a solution of chloroform, trifluoroethanol and dimethylsulfoxide (19:5:1 volume ratio) to a final concentration of 4.79×10^−4M. Gramicidin A stock solutions were mixed with the lipid stock solutions (20 mg.mL^−1 DOPC in chloroform) in disposable glass vials to provide final ratios of gA:lipid of either 0.39 mol % or 0.94 mol %. The organic solvent was removed by evaporation under a dry nitrogen gas stream to remove the bulk of the organic solvent, followed by evaporation under vacuum for two hours. […]
For ion-channel studies, reconstitution of gramicidin A samples was done using an unbuffered aqueous solution containing 50 μM safranine O at pH 7.0. […] Liposome solutions that were used for tryptophan fluorescence studies consisted of 0.94 mol % of gramicidin A in DOPC that was hydrated to final concentrations of 1.0 μM of gA in 100 mM phosphate buffer at pH 7.0. […]
The fluorescence intensity response of safranine O was monitored using the MICROMAX microwell plate reader. Fluorescence emission was monitored as a function of time at 565 nm with an excitation wavelength of 528 nm upon addition of 125 μL of various concentrations of potassium iodide to the top of the monolithic samples in the microwell plate to create an ionic gradient across the membrane. […]

For `COc1cc2c3cc1Oc1cc(ccc1O)C[C@@H]1c4c(cc(OC)c(O)c4Oc4ccc(cc4)C[C@@H]3N(C)CC2)CC[N+]1(C)C` [d-tubocurarine], the “IC50 and KI values compared with solution based experiments” value (IMR-32 nAChR [1]) was “in good agreement with those obtained from solution based experiments” and the “fluo-3 emission response to Ca(II) (ion flux) upon addition of antagonist” value (IMR-32 nAChR [2]; liposomes previously incubated with excess nicotine, FIG. 12) was “the response is reduced”.
With `CN1CCCC1c1cccnc1` (single isomer, unassigned; (-)) [nicotine, (−)-nicotine] the “IC50 and KI values compared with solution based experiments” value (IMR-32 nAChR [1]) was “in good agreement with those obtained from solution based experiments”.
With `C[C@H](CCC(=O)O)C[C@H](C)C[C@H](C)C(=O)/C=C(\O)[C@H](C)C[C@H](C)C/C=C/[C@@H](C)[C@@H](O)[C@@H](C)[C@@H](O)C[C@@H]1CC[C@@](C)([C@H]2CC[C@@](C)([C@@H](C)O)O2)O1` [ionomycin] the “increase of fluo-3 response on Ca(II) influx” value [3] was 3 fold.
With `O=c1cccc2n1C[C@@H]1CNC[C@H]2C1` [cytisine] the “fluo-3 emission response to Ca(II) (ion flux) upon addition of agonist” value (IMR-32 nAChR [2]) was “acts as an agonist”.
With `[Ca+2].[Cl-].[Cl-]` [CaCl2] the “potential induced fluorescence response to potassium ion flux (inhibition of ion-channel activity)” value (gramicidin A) was “significant and concentration-dependent decrease”.
